Measurements taken from patent US12448399B2, “Cereblon-based KRAS degrading PROTACs and uses related thereto” (Arvinas Operations, Inc., priority 2023, dated 2025).

Target: T1, KRas-G12D (Homo sapiens, UniProt P01116, G12D)
T1 construct: insert the HiBiT tag onto the N-terminus of one or more of the endogenous KRas alleles; host or cells: AsPC-1 HiBiT-KRasG12D knock-in clone (one tagged allele, two untagged KRasG12D alleles)
Assay: HiBiT Degradation Assay (G12D), AsPC-1 HiBiT-KRasG12D cells, 24 hr
Assay type: cell-based
Conditions: for Dmax: ASPC1, AsPC-1 cells, maximum degradation observed; for DC50: AsPC-1 cells
Outline: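 AsPC-1 cells with CRISPR N-terminal HiBiT knock-in on one endogenous KRasG12D allele, treated 24 hr at 37° C with compound titrations in 0.5% DMSO. Lytic HiBiT luminescence normalized to DMSO, fitted to a 4-parameter model for DC50 and Dmax. Parallel alamar blue (4 hr) checked viability.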

T1 sequence (P01116 1-188 isoform P01116-2 G12D): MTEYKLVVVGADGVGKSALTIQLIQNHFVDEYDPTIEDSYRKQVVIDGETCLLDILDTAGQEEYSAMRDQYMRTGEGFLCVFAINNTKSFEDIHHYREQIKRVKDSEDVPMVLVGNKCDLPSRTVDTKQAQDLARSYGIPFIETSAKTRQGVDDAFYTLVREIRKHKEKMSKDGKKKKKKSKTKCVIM

SMILES | Dmax [%] | DC50 [µM]
C#Cc1c(F)ccc2cc(O)cc(-c3ncc4c(N5CC6CCC(C5)N6)nc(OCCN5CCC(CN6CCC(CC7CCN(c8ccc9c(c8F)CN(C8CCC(=O)NC8=O)C9=O)CC7)CC6)CC5)nc4c3F)c12 (stereo not shown) [Compound 88, 3-{5-[4-({1-[(1-{2-[(4-{3,8-diazabicyclo[3.2.1]octan-3-yl}-7-(8-ethynyl-7-fluoro-3-hydroxynaphthalen-1-yl)-8-fluoropyrido[4,3-d]pyrimidin-2-yl)oxy]ethyl}piperidin-4-yl)methyl]piperidin-4-yl}methyl)piperidin-1-yl]-4-fluoro-1-oxo-2,3-dihydro-1H-isoindol-2-yl}piperidine-2,6-dione] | > 70 | < 5.1
C#Cc1c(F)ccc2cc(O)cc(-c3ncc4c(N5CC6CCC(C5)N6)nc(OCCN5CCC(CC6CCN(c7ccc8c(c7)n(C)c(=O)n8C7CCC(=O)NC7=O)CC6)CC5)nc4c3F)c12 (stereo not shown) [Compound 89, 3-(5-{4-[(1-{2-[(4-{3,8-diazabicyclo[3.2.1]octan-3-yl}-7-(8-ethynyl-7-fluoro-3-hydroxynaphthalen-1-yl)-8-fluoropyrido[4,3-d]pyrimidin-2-yl)oxy]ethyl}piperidin-4-yl)methyl]piperidin-1-yl}-3-methyl-2-oxo-2,3-dihydro-1H-1,3-benzodiazol-1-yl)piperidine-2,6-dione] | > 70 | < 5.1
C#Cc1c(F)ccc2cc(O)cc(-c3ncc4c(N5CC6CCC(C5)N6)nc(OCCN5CCC(CC6(F)CCN(CC7CCN(c8ccc9c(c8)CN(C8CCC(=O)NC8=O)C9=O)CC7)CC6)CC5)nc4c3F)c12 (stereo not shown) [Compound 90, 3-{5-[4-({4-[(1-{2-[(4-{3,8-diazabicyclo[3.2.1]octan-3-yl}-7-(8-ethynyl-7-fluoro-3-hydroxynaphthalen-1-yl)-8-fluoropyrido[4,3-d]pyrimidin-2-yl)oxy]ethyl}piperidin-4-yl)methyl]-4-fluoropiperidin-1-yl}methyl)piperidin-1-yl]-1-oxo-2,3-dihydro-1H-isoindol-2-yl}piperidine-2,6-dione] | – | > 1
C#Cc1c(F)ccc2cc(O)cc(-c3ncc4c(N5CC6CCC(C5)N6)nc(OCCN5CCC(F)(CC6CCN(CC7CCN(c8ccc9c(c8)CN(C8CCC(=O)NC8=O)C9=O)CC7)CC6)CC5)nc4c3F)c12 (stereo not shown) [Compound 91, 3-[5-[4-[[4-[[1-[2-[4-(3,8-diazabicyclo [3.2.1]octan-3-yl)-7-(8-ethynyl-7-fluoro-3-hydroxy-1-naphthyl)-8-fluoro-pyrido[4,3-d]pyrimidin-2-yl]oxyethyl]-4-fluoro-4-piperidyl]methyl]-1-piperidyl]methyl]-1-piperidyl]-1-oxo-isoindolin-2-yl]piperidine-2,6-dione] | > 70 | < 5.1
C#Cc1c(F)ccc2cc(O)cc(-c3ncc4c(N5CC6CCC(C5)N6)nc(OCCN5CCC(CN6CCC7(CC6)CCN(c6ccc8c(c6F)CN(C6CCC(=O)NC6=O)C8=O)CC7)CC5)nc4c3F)c12 (stereo not shown) [Compound 92, 3-(5-{9-[(1-{2-[(4-{3,8-diazabicyclo[3.2.1]octan-3-yl}-7-(8-ethynyl-7-fluoro-3-hydroxynaphthalen-1-yl)-8-fluoropyrido[4,3-d]pyrimidin-2-yl)oxy]ethyl}piperidin-4-yl)methyl]-3,9-diazaspiro[5.5]undecan-3-yl}-4-fluoro-1-oxo-2,3-dihydro-1H-isoindol-2-yl)piperidine-2,6-dione] | > 70 | < 5.1
C#Cc1c(F)ccc2cc(O)cc(-c3ncc4c(N5CC6CCC(C5)N6)nc(OCCN5CCC(CN6CCC7(CC6)CCN(c6ccc8c(c6)CN(C6CCC(=O)NC6=O)C8=O)CC7)CC5)nc4c3F)c12 (stereo not shown) [Compound 93, 3-(5-{9-[(1-{2-[(4-{3,8-diazabicyclo[3.2.1]octan-3-yl}-7-(8-ethynyl-7-fluoro-3-hydroxynaphthalen-1-yl)-8-fluoropyrido[4,3-d]pyrimidin-2-yl)oxy]ethyl}piperidin-4-yl)methyl]-3,9-diazaspiro[5.5]undecan-3-yl}-1-oxo-2,3-dihydro-1H-isoindol-2-yl)piperidine-2,6-dione] | > 70 | < 5.1
C#Cc1c(F)ccc2cc(O)cc(-c3ncc4c(N5CC6CCC(C5)N6)nc(OCCN5CCC(CC6CCN(CC7CCN(c8cccc9c8n(C(C)C)c(=O)n9C8CCC(=O)NC8=O)CC7)CC6)CC5)nc4c3F)c12 (stereo not shown) [Compound 94, 3-{4-[4-({4-[(1-{2-[(4-{3,8-diazabicyclo[3.2.1]octan-3-yl}-7-(8-ethynyl-7-fluoro-3-hydroxynaphthalen-1-yl)-8-fluoropyrido[4,3-d]pyrimidin-2-yl)oxy]ethyl}piperidin-4-yl)methyl]piperidin-1-yl}methyl)piperidin-1-yl]-2-oxo-3-(propan-2-yl)-2,3-dihydro-1H-1,3-benzodiazol-1-yl}piperidine-2,6-dione] | > 70 | < 5.1
C#Cc1c(F)ccc2cc(O)cc(-c3ncc4c(N5CC6CCC(C5)N6)nc(OC[C@@H]5C[C@@H](OC6CCN(CC7CCN(c8ccc9c(c8)n(C(C)C)c(=O)n9C8CCC(=O)NC8=O)CC7)CC6)CN5C)nc4c3F)c12 (stereo partly drawn) [Compound 95, 3-(5-{4-[(4-{[(3R,5S)-5-{[(4-{3,8-diazabicyclo[3.2.1]octan-3-yl}-7-(8-ethynyl-7-fluoro-3-hydroxynaphthalen-1-yl)-8-fluoropyrido[4,3-d]pyrimidin-2-yl)oxy]methyl}-1-methylpyrrolidin-3-yl]oxy}piperidin-1-yl)methyl]piperidin-1-yl}-2-oxo-3-(propan-2-yl)-2,3-dihydro-1H-1,3-benzodiazol-1-yl)piperidine-2,6-dione] | > 70 | < 5.1
C#Cc1c(F)ccc2cc(O)cc(-c3ncc4c(N5CC6CCC(C5)N6)nc(OC[C@@H]5C[C@@H](OC6CCN(CC7CCN(c8ccc9c(c8)n(C)c(=O)n9C8CCC(=O)NC8=O)CC7)CC6)CN5C)nc4c3F)c12 (stereo partly drawn) [Compound 96, 3-(5-{4-[(4-{[(3R,5S)-5-{[(4-{3,8-diazabicyclo[3.2.1]octan-3-yl}-7-(8-ethynyl-7-fluoro-3-hydroxynaphthalen-1-yl)-8-fluoropyrido[4,3-d]pyrimidin-2-yl)oxy]methyl}-1-methylpyrrolidin-3-yl]oxy}piperidin-1-yl)methyl]piperidin-1-yl}-3-methyl-2-oxo-2,3-dihydro-1H-1,3-benzodiazol-1-yl)piperidine-2,6-dione] | > 70 | < 5.1
C#Cc1c(F)ccc2cc(O)cc(-c3ncc4c(N5CC6CCC(C5)N6)nc(OCCN5CCC(CC6CCN(CC7CCN(c8ccc9c(c8)CN(C8(C)CCC(=O)NC8=O)C9=O)CC7)CC6)CC5)nc4c3F)c12 (stereo not shown) [Compound 97] | – | > 1
C#Cc1c(F)ccc2cc(O)cc(-c3ncc4c(N5CC6CCC(C5)N6)nc(OCCN5CCC(CC6CCN(CC7CCN(c8ccc9c(c8)n(C(C)C)c(=O)n9C8CCC(=O)NC8=O)CC7)CC6)CC5)nc4c3F)c12 (stereo not shown) [Compound 98, 3-{5-[4-({4-[(1-{2-[(4-{3,8-diazabicyclo[3.2.1]octan-3-yl}-7-(8-ethynyl-7-fluoro-3-hydroxynaphthalen-1-yl)-8-fluoropyrido[4,3-d]pyrimidin-2-yl)oxy]ethyl}piperidin-4-yl)methyl]piperidin-1-yl}methyl)piperidin-1-yl]-2-oxo-3-(propan-2-yl)-2,3-dihydro-1H-1,3-benzodiazol-1-yl}piperidine-2,6-dione] | > 70 | < 5.1
C#Cc1c(F)ccc2cc(O)cc(-c3ncc4c(N5CC6CCC(C5)N6)nc(OCC5(CN6CCC(CC7CCN(c8ccc9c(c8)CN(C8CCC(=O)NC8=O)C9=O)CC7)CC6)CC5)nc4c3F)c12 (stereo not shown) [Compound 99, 3-{5-[4-({1-[(1-{[(4-{3,8-diazabicyclo[3.2.1]octan-3-yl}-7-(8-ethynyl-7-fluoro-3-hydroxynaphthalen-1-yl)-8-fluoropyrido[4,3-d]pyrimidin-2-yl)oxy]methyl}cyclopropyl)methyl]piperidin-4-yl}methyl)piperidin-1-yl]-1-oxo-2,3-dihydro-1H-isoindol-2-yl}piperidine-2,6-dione] | > 70 | < 5.1
C#Cc1c(F)ccc2cc(O)cc(-c3ncc4c(N5CC6CCC(C5)N6)nc(OC[C@@]56CCCN5[C@H](CN5CCN(CC7CCN(c8ccc9c(c8)CN(C8CCC(=O)NC8=O)C9=O)CC7)CC5)CC6)nc4c3F)c12 (stereo partly drawn) [Compound 100, 3-(5-{4-[(4-{[(3S,7aS)-7a-{[(4-{3,8-diazabicyclo[3.2.1]octan-3-yl}-7-(8-ethynyl-7-fluoro-3-hydroxynaphthalen-1-yl)-8-fluoropyrido[4,3-d]pyrimidin-2-yl)oxy]methyl}-hexahydro-1H-pyrrolizin-3-yl]methyl}piperazin-1-yl)methyl]piperidin-1-yl}-1-oxo-2,3-dihydro-1H-isoindol-2-yl)piperidine-2,6-dione] | > 70 | < 5.1
C#Cc1c(F)ccc2cc(O)cc(-c3ncc4c(N5CC6CCC(C5)N6)nc(OCCN5CCC(CN6CCN(CC7CCN(c8ccc9c(c8F)CN(C8CCC(=O)NC8=O)C9=O)CC7)CC6)CC5)nc4c3F)c12 (stereo not shown) [Compound 101, 3-[5-[4-[[4-[[1-[2-[4-(3,8-diazabicyclo[3.2.1]octan-3-yl)-7-(8-ethynyl-7-fluoro-3-hydroxy-1-naphthyl)-8-fluoro-pyrido[4,3-d]pyrimidin-2-yl]oxyethyl]-4-piperidyl]methyl]piperazin-1-yl]methyl]-1-piperidyl]-4-fluoro-1-oxo-isoindolin-2-yl]piperidine-2,6-dione] | > 70 | < 5.1
C#Cc1c(F)ccc2cc(O)cc(-c3ncc4c(N5CC6CCC(C5)N6)nc(OC[C@@H]5C[C@@H](OC6CCN(c7ccc8c(c7F)CN(C7CCC(=O)NC7=O)C8=O)CC6)CN5C)nc4c3F)c12 (stereo partly drawn) [Compound 103, 3-[5-(4-{[(3R,5S)-5-{[(4-{3,8-diazabicyclo[3.2.1]octan-3-yl}-7-(8-ethynyl-7-fluoro-3-hydroxynaphthalen-1-yl)-8-fluoropyrido[4,3-d]pyrimidin-2-yl)oxy]methyl}-1-methylpyrrolidin-3-yl]oxy}piperidin-1-yl)-4-fluoro-1-oxo-2,3-dihydro-1H-isoindol-2-yl]piperidine-2,6-dione] | > 70 | < 5.1
